Assay results reported in US20260242390A1, “TOTAL SYNTHESES OF PORTIMINE A AND ANALOGUES THEREOF AS SMALL MOLECULE MODULATORS OF NMD3” (priority 2023, published 2026).

Tests used:
U87EGFRvIII = experiment: Broad cell line profiling, U87EGFRvIII; format: cell-based; details: Homo sapiens, EGFRvIII Expressing Glioblastoma, read-out: PA IC50
Text: • A panel of human and mouse cancer cell types used to assess the breadth of PA activity, including multiple therapy resistant metastatic mesenchymal tumor cell lines and primary glioblastoma patient-derived metastatic stem/tumor initiating cell populations.

MC38 colon carcinoma = experiment: MC38 Syngeneic Tumor Xenograft Model; format: in vivo, mouse; details: 0.3 or 1.0 mg/kg, i.p.
Description: FIG. 4. Validation of NMD3 as target of Portimine A by Chemo-precipitation (ChP). Portimine A mouse pharmacokinetic properties and fast acting in vitro cell-based target engagement properties based on compound wash-out. (A) Pharmacokinetic studies of mouse intraperitoneal (i.p.) and oral (p.o.) administration for portimine (n=3). […] Impact of PA [0.3 or 1 mg/kg intraperitoneally] on MC38 tumor growth in WT mice (n=6). (C) Kaplan-Myer survival curve of WT MC38 tumor-bearing mice (n=6) after treatment with PA as described in (D). Mice were euthanized when tumor area exceeded 2000 mm^3. Statistical analysis was performed using ANOVA analysis followed by multiple comparisons test, * p≤0.05. Treatment condition: Jurkat (60 M per condition); PA-DA/ePA-DA concentration: 0.5 uM, PA or ePA: 5 uM; Incubate with probe with or without competitors (PA, ePA) for 30 min; UV irradiated for 20 min. (0.5 uM PA-DA add a no-UV condition); Standard pulldown & biotin-enrichment and western blot analysis (Elute condition: 2× sample buffer+500 uM biotin, boil for 20 mins); Primary antibody NMD3 (ProteinTech, 1:150), Actin (BioRad, 1:10000).
FIG. 9. […] (A) Systemic Portimine A in MC38 Syngeneic Tumor Xenograft Model; and (B) Systemic Portimine A in HT-1080 Tumor Xenograft Model. […]

C=CC1=C[C@@H]2[C@@H]3O[C@]4(CC[C@H](O4)C(C)C[C@@H](O)C3=O)CC(O)C3=NCC[C@@]32CC1 (some centres unmarked) [PA, portimine A]
IC50 (U87EGFRvIII): 3.4 nM | anti-tumor activity, MC38 colon carcinoma syngeneic model (MC38 colon carcinoma): Potent anti-tumor activity
